Blank lines part the entries; values can stand above or below the molecule they belong to.
Legend:
Format in all cases: functional, cell membranes, Sprague-Dawley, Bile canalicular membrane vesicle
[1] = molecular target: T1, ATP-binding cassette sub-family C member 2 (Rattus norvegicus, UniProt Q63120); experiment: TP_TRANSPORTER: inhibition of DNP-SG uptake in bile canalicular membrane vesicles from SD rat
[2] = molecular target: T1, ATP-binding cassette sub-family C member 2; experiment: TP_TRANSPORTER: inhibition of Temocaprilat uptake in bile canalicular membrane vesicles from SD rat
[3] = substrate: O=C(O)CN1C[C@@H](c2cccs2)SC[C@H](N[C@@H](CCc2ccccc2)C(=O)O)C1=O; experiment: TP_TRANSPORTER: uptake in bile canalicular membrane vesicles from SD rat

Ki [1]: 343 µM
Molecule: O=C(O)CN1C[C@@H](c2cccs2)SC[C@H](N[C@@H](CCc2ccccc2)C(=O)O)C1=O [TEMOCAPRILAT]

Molecule: N[C@@H](CCC(=O)N[C@H](CSc1ccc([N+](=O)[O-])cc1[N+](=O)[O-])C(=O)NCC(=O)O)C(=O)O
Ki [2]: 25.8 µM

B1: ATP-binding cassette sub-family C member 2 (Rattus norvegicus) (protein)
chain: MDKFCNSTFWDLSLLESPEADLPLCFEQTVLVWIPLGFLWLLAPWQLYSVYRSRTKRSSITKFYLAKQVFVVFLLILAAIDLSLALTEDTGQATVPPVRYTNPILYLCTWLLVLAVQHSRQWCVRKNSWFLSLFWILSVLCGVFQFQTLIRALLKDSKSNMAYSYLFFVSYGFQIVLLILTAFSGPSDSTQTPSVTASFLSSITFSWYDRTVLKGYKHPLTLEDVWDIDEGFKTRSVTSKFEAAMTKDLQKARQAFQRRLQKSQRKPEATLHGLNKKQSQSQDVLVLEEAKKKSEKTTKDYPKSWLIKSLFKTFHVVILKSFILKLIHDLLVFLNPQLLKLLIGFVKSSNSYVWFGYICAILMFAVTLIQSFCLQSYFQHCFVLGMCVRTTVMSSIYKKALTLSNLARKQYTIGETVNLMSVDSQKLMDATNYMQLVWSSVIQITLSIFFLWRELGPSILAGVGVMVLLIPVNGVLATKIRNIQVQNMKNKDKRLKIMNEILSGIKILKYFAWEPSFQEQVQGIRKKELKNLLRFGQLQSLLIFILQITPILVSVVTFSVYVLVDSANVLNAEKAFTSITLFNILRFPLSMLPMVTSSILQASVSVDRLERYLGGDDLDTSAIRRVSNFDKAVKFSEASFTWDPDLEATIQDVNLDIKPGQLVAVVGTVGSGKSSLVSAMLGEMENVHGHITIQGSTAYVPQQSWIQNGTIKDNILFGSEYNEKKYQQVLKACALLPDLEILPGGDMAEIGEKGINLSGGQKQRVSLARAAYQDADIYILDDPLSAVDAHVGKHIFNKVVGPNGLLAGKTRIFVTHGIHFLPQVDEIVVLGKGTILEKGSYRDLLDKKGVFARNWKTFMKHSGPEGEATVNNDSEAEDDDDGLIPTMEEIPEDAASLAMRRENSLRRTLSRSSRSSSRRGKSLKNSLKIKNVNVLKEKEKEVEGQKLIKKEFVETGKVKFSIYLKYLQAVGWWSILFIILFYGLNNVAFIGSNLWLSAWTSDSDNLNGTNNSSSHRDMRIGVFGALGLAQGICLLISTLWSIYACRNASKALHGQLLTNILRAPMRFFDTTPTGRIVNRFSGDISTVDDLLPQTLRSWMMCFFGIAGTLVMICMATPVFAIIIIPLSILYISVQVFYVATSRQLRRLDSVTKSPIYSHFSETVTGLPIIRAFEHQQRFLAWNEKQIDINQKCVFSWITSNRWLAIRLELVGNLVVFCSALLLVIYRKTLTGDVVGFVLSNALNITQTLNWLVRMTSEAETNIVAVERISEYINVENEAPWVTDKRPPADWPRHGEIQFNNYQVRYRPELDLVLKGITCNIKSGEKVGVVGRTGAGKSSLTNCLFRILESAGGQIIIDGIDVASIGLHDLRERLTIIPQDPILFSGSLRMNLDPFNKYSDEEVWRALELAHLRSFVSGLQLGLLSEVTEGGDNLSIGQRQLLCLGRAVLRKSKILVLDEATAAVDLETDSLIQTTIRKEFSQCTVITIAHRLHTIMDSDKIMVLDNGKIVEYGSPEELLSNRGSFYLMAKEAGIENVNHTEL
Km [3]: 92.5 µM

Reference: ChEMBL document CHEMBL2074278, “Temocaprilat, a novel angiotensin-converting enzyme inhibitor, is excreted in bile via an ATP-dependent active transporter (cMOAT) that is deficient in Eisai hyperbilirubinemic mutant rats (EHBR)” (J Pharmacol Exp Ther, 1997)
